Data from ChEMBL document CHEMBL1201862, “PubChem BioAssay data set” (2004).
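1) Cells in 96-well plates. 2) Compound, 48 h, 5 concentrations. 3) Linear interpolation between surrounding doses. 4) Unreached endpoint = highest concentration. The concentration for 50% growth inhibition is given as GI50.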 The source made the active and inactive calls. Rule as the data show it: active = GI50 up to about 1.1 µM and inactive = higher.

Legend:
Assay in all cases: NCI tumour cell line growth inhibition, 48 h
786-0 = system: 786-0
A498 = system: A498
COLO 205 = system: COLO 205
HCT-116 = system: HCT-116
HOP-62 = system: HOP-62
HOP-92 = system: HOP-92
MDA-MB-231 = system: MDA-MB-231
Malme-3M = system: Malme-3M
NCI-H522 = system: NCI-H522
NCI/ADR-RES = system: NCI/ADR-RES
OVCAR-3 = system: OVCAR-3
SF-268 = system: SF-268
SK-MEL-28 = system: SK-MEL-28
SNB-19 = system: SNB-19
SW-620 = system: SW-620
T47D = system: T47D
TK-10 = system: TK-10
CCRF-CEM = system: CCRF-CEM
HL-60 = system: HL-60

Compound | GI50 (786-0) | GI50 (A498) | GI50 (COLO 205) | GI50 (HCT-116) | GI50 (HOP-62) | GI50 (HOP-92) | GI50 (MDA-MB-231) | GI50 (Malme-3M) | GI50 (NCI-H522) | GI50 (NCI/ADR-RES) | GI50 (OVCAR-3) | GI50 (SF-268) | GI50 (SK-MEL-28) | GI50 (SNB-19) | GI50 (SW-620) | GI50 (T47D) | GI50 (TK-10) | GI50 (CCRF-CEM) | GI50 (HL-60)
c1cncc(CNc2ncn[nH]2)c1 | > 100 µM (inactive) | > 100 µM (inactive) | > 100 µM (inactive) | > 100 µM (inactive) | > 100 µM (inactive) | > 100 µM (inactive) | > 100 µM (inactive) | > 100 µM (inactive) | > 100 µM (inactive) | > 100 µM (inactive) | > 100 µM (inactive) | > 100 µM (inactive) | > 100 µM (inactive) | > 100 µM (inactive) | > 100 µM (inactive) | > 100 µM (inactive) | > 100 µM (inactive) |  | 
CNC(=O)OCc1c2ccncc2c(C)c2c1[nH]c1ccccc12 | 0.262 µM (active) | 0.202 µM (active) | 0.443 µM (active) | 0.184 µM (active) | 0.494 µM (active) | 0.695 µM (active) | 0.48 µM (active) | 0.372 µM (active) | 0.0646 µM (active) | 0.24 µM (active) | 0.28 µM (active) | 0.272 µM (active) | 0.818 µM (active) | 0.372 µM (active) | 0.136 µM (active) | 0.331 µM (active) | 0.237 µM (active) | 0.0962 µM (active) | 
CN(C(=O)Cc1ccccc1)n1cnn(CC(=O)OC(C)(C)C)c1=S | > 10 µM (inactive) | > 10 µM (inactive) | > 10 µM (inactive) | > 10 µM (inactive) | > 10 µM (inactive) | > 10 µM (inactive) | > 10 µM (inactive) | > 10 µM (inactive) | > 10 µM (inactive) | > 10 µM (inactive) | > 10 µM (inactive) | > 10 µM (inactive) | > 10 µM (inactive) | > 10 µM (inactive) | > 10 µM (inactive) | > 10 µM (inactive) | > 10 µM (inactive) | > 10 µM (inactive) | 
Cn1cco/c1=N/c1ccc(Cl)c(Cl)c1 | > 10 µM (inactive) | > 10 µM (inactive) | > 10 µM (inactive) | > 10 µM (inactive) | > 10 µM (inactive) | > 10 µM (inactive) | > 10 µM (inactive) | > 10 µM (inactive) | > 10 µM (inactive) | > 10 µM (inactive) | > 10 µM (inactive) | > 10 µM (inactive) | > 10 µM (inactive) | > 10 µM (inactive) | > 10 µM (inactive) | > 10 µM (inactive) | > 10 µM (inactive) | > 10 µM (inactive) | 
CN1C(=O)C(=CNc2ccc(Cl)cc2Cl)C(=O)N(C)C1=O | > 100 µM (inactive) | > 100 µM (inactive) | > 100 µM (inactive) | > 100 µM (inactive) | > 100 µM (inactive) | > 100 µM (inactive) | > 100 µM (inactive) | > 100 µM (inactive) | > 100 µM (inactive) | > 100 µM (inactive) | > 100 µM (inactive) | > 100 µM (inactive) |  | > 100 µM (inactive) | > 100 µM (inactive) | > 100 µM (inactive) | > 100 µM (inactive) | 13.9 µM (inactive) | 
O=C(c1ccccc1)C1C(C(=O)c2ccccc2)C(c2ccccc2)N(c2ccccc2)C1c1ccccc1 (centres undefined) | > 100 µM (inactive) |  | > 100 µM (inactive) | > 100 µM (inactive) | > 100 µM (inactive) | > 100 µM (inactive) | > 100 µM (inactive) | > 100 µM (inactive) | > 100 µM (inactive) | > 100 µM (inactive) | > 100 µM (inactive) | > 100 µM (inactive) | > 100 µM (inactive) | > 100 µM (inactive) | > 100 µM (inactive) | > 100 µM (inactive) | > 100 µM (inactive) | > 100 µM (inactive) | 5.48 µM (inactive)
c1ccc(C[n+]2ccc3c(c2)CCCC3)cc1 | > 100 µM (inactive) |  | 66.5 µM (inactive) | 93.1 µM (inactive) | > 100 µM (inactive) | > 100 µM (inactive) | > 100 µM (inactive) | 21.4 µM (inactive) |  | > 100 µM (inactive) | 36.8 µM (inactive) | > 100 µM (inactive) | > 100 µM (inactive) | 49.5 µM (inactive) | > 100 µM (inactive) | 45.3 µM (inactive) | > 100 µM (inactive) | > 100 µM (inactive) | 29.5 µM (inactive)
COc1ccc(Cc2coc3ccccc3c2=O)cc1OC | > 100 µM (inactive) |  | > 100 µM (inactive) | 45.7 µM (inactive) | 56.1 µM (inactive) | > 100 µM (inactive) | 99.1 µM (inactive) | > 100 µM (inactive) | 43.5 µM (inactive) | 36.1 µM (inactive) | 78 µM (inactive) | > 100 µM (inactive) | > 100 µM (inactive) | > 100 µM (inactive) | > 100 µM (inactive) | 33.2 µM (inactive) | > 100 µM (inactive) | > 100 µM (inactive) | 86.5 µM (inactive)
COc1ccc(C2CC(c3c(O)ccc4ccccc34)=NN2C(C)=O)cc1OC (centres undefined) | 33.3 µM (inactive) | 24.3 µM (inactive) | 17 µM (inactive) | 15.3 µM (inactive) | 26.9 µM (inactive) | 27.8 µM (inactive) | 18.5 µM (inactive) | 31 µM (inactive) | 31.7 µM (inactive) | 26.5 µM (inactive) | 23.2 µM (inactive) | 31.4 µM (inactive) | 28.8 µM (inactive) |  | 32.9 µM (inactive) | 34.6 µM (inactive) | 53.3 µM (inactive) | 12.6 µM (inactive) | 
COc1cc(OCCN(C)C)c2[nH]c(C(=O)N3CC(CCl)c4c3cc(N)c3ccccc43)cc2c1 (centres undefined) | < 0.01 µM (active) | < 0.01 µM (active) | < 0.01 µM (active) | < 0.01 µM (active) | < 0.01 µM (active) | < 0.01 µM (active) | < 0.01 µM (active) | < 0.01 µM (active) | < 0.01 µM (active) | < 0.01 µM (active) | < 0.01 µM (active) | < 0.01 µM (active) | < 0.01 µM (active) | < 0.01 µM (active) | < 0.01 µM (active) | 0.0139 µM (active) | < 0.01 µM (active) | < 0.01 µM (active) | 
CC1(C)CC[C@]2(C)CC=C3[C@]4(C)CC[C@H]5C(C)(C)C(=O)CC[C@]5(C)[C@H]4CC[C@@]3(C)[C@H]2C1 | > 100 µM (inactive) | > 100 µM (inactive) | > 100 µM (inactive) | > 100 µM (inactive) | > 100 µM (inactive) | > 100 µM (inactive) | > 100 µM (inactive) | > 100 µM (inactive) | > 100 µM (inactive) | > 100 µM (inactive) | > 100 µM (inactive) | > 100 µM (inactive) | > 100 µM (inactive) | > 100 µM (inactive) | > 100 µM (inactive) | > 100 µM (inactive) | > 100 µM (inactive) | > 100 µM (inactive) | 
c1ccc2c(c1)CC1=C(O2)c2ccccc2OC1 | 16.6 µM (inactive) | 61.1 µM (inactive) | 18.9 µM (inactive) | 16.4 µM (inactive) | 74.5 µM (inactive) | 21.2 µM (inactive) | 31.8 µM (inactive) | 52.6 µM (inactive) | 19.5 µM (inactive) | 36.6 µM (inactive) | 21.3 µM (inactive) | 29.4 µM (inactive) |  |  | 19.8 µM (inactive) | 17 µM (inactive) | 33.2 µM (inactive) | 32.7 µM (inactive) | 
CC1(C)CC(=O)C2=C(C1)N(c1ccccc1)C1(O)C=CC(O)=C3C(=O)c4ccccc4C(=O)C321 (centres undefined) | 33.1 µM (inactive) |  | 33.6 µM (inactive) | 61.4 µM (inactive) | 34.4 µM (inactive) | 24.1 µM (inactive) | 34.4 µM (inactive) | 26.7 µM (inactive) | 20.3 µM (inactive) | 9.84 µM (inactive) | 37.8 µM (inactive) | 20.2 µM (inactive) | 17.8 µM (inactive) | 21.7 µM (inactive) |  | 45.3 µM (inactive) | 24.4 µM (inactive) | 4.06 µM (inactive) | 37.2 µM (inactive)
Cc1ccc(-c2n[nH]c(=O)n2/N=C\c2ccccc2O)cc1 | > 100 µM (inactive) |  | > 100 µM (inactive) | > 100 µM (inactive) | > 100 µM (inactive) | > 100 µM (inactive) | 68.5 µM (inactive) | > 100 µM (inactive) | > 100 µM (inactive) | > 100 µM (inactive) | > 100 µM (inactive) | > 100 µM (inactive) | > 100 µM (inactive) | > 100 µM (inactive) | > 100 µM (inactive) | 94 µM (inactive) | > 100 µM (inactive) | > 100 µM (inactive) | > 100 µM (inactive)
Oc1ccc2ccccc2c1/C=N/Cc1c(O)ccc2ccccc12 | 47.2 µM (inactive) | 26.1 µM (inactive) | > 100 µM (inactive) | 28.3 µM (inactive) | > 100 µM (inactive) | 26.4 µM (inactive) | 82.4 µM (inactive) | 43.2 µM (inactive) | 6.53 µM (inactive) | 33.8 µM (inactive) | 18.4 µM (inactive) | 37.2 µM (inactive) | > 100 µM (inactive) | 36.9 µM (inactive) | 52.4 µM (inactive) | 19.1 µM (inactive) | 70.5 µM (inactive) | 6.25 µM (inactive) | 
CC[S+]([O-])C(=O)N(O)c1ccc(Cl)cc1 (centres undefined) | 21.7 µM (inactive) | 56.4 µM (inactive) | 36 µM (inactive) | 24.4 µM (inactive) | > 100 µM (inactive) | 29.9 µM (inactive) | 29.4 µM (inactive) |  |  | 24.9 µM (inactive) | 31.6 µM (inactive) | 20.8 µM (inactive) | 17.4 µM (inactive) | 60.7 µM (inactive) | 18 µM (inactive) | 31.3 µM (inactive) | 35.8 µM (inactive) | 12.6 µM (inactive) | 
